Data: article PMC2717426, “The effect of exogenous glucagon-like peptide-1 on the glycaemic response to small intestinal nutrient in the critically ill: a randomised double-blind placebo-controlled cross over study” (Critical Care, 2009)

Assays:
[1] = Plasma insulin (ELISA) and insulin/glucose ratio during GLP-1 infusion; format: in vivo, critically ill patients; conditions: GLP-1 1.2 pmol/kg/min i.v., mean ± SEM, n = 7
Excerpt: Patients were studied on two consecutive days, in which they received intravenous GLP-1 or placebo in a randomised, double-blind fashion. Twelve hours prior to the study, a naso-duodenal feeding catheter was inserted and confirmed via abdominal x-ray. On each study day enteral feeding was ceased at least four hours prior to the commencement of the study. Exogenous insulin (Actrapid, Novo-Nordisk, Copenhagen, Denmark) infusion was ceased at least two hours before the commencement of the study drug. Patient weight was provided by a relative and/or estimated by a dietician. […] The study investigators were blinded to each infusion, which were concealed in a glass bottle covered by black plastic. […]
Blood glucose was measured at the bedside using a portable glucometer (Medisense Optimum, Abbott, Melbourne, Australia). […] Plasma insulin was measured by ELISA (Diagnostics Systems Laboratories, Webster, Texas, USA) with an inter-assay coefficient of variation (CV) of 6.2%.
Data are presented as mean ± standard error of the mean. Area under the curve (AUC) was calculated using the trapezoidal rule. […] The ratios of insulin/glucose were calculated, as described previously. […] The difference between intervention and placebo was assessed using paired samples; Student's paired t-test and repeated measures analysis of variance. Data were evaluated for potential carry over effect. […]

[2] = Plasma glucagon concentration (radioimmunoassay) during GLP-1 infusion; format: in vivo, critically ill patients; conditions: GLP-1 1.2 pmol/kg/min i.v.; trapezoidal rule; mean ± SEM, n = 7
[3] = GLP-1 infusion at 1.2 pmol/kg/min; postoperative patients with type 2 diabetes; cited from earlier work
Excerpt: Hyperglycaemia in critically ill patients, not previously known to have diabetes, is associated with poorer outcomes than in patients with pre-existing diabetes. […] Insulin infusions were ceased two hours before the commencement of the study to ensure clearance of exogenous insulin. Given t ...

[4] = Blood glucose response to small intestinal nutrient infusion during intravenous GLP-1 infusion (bedside glucometer); format: in vivo, critically ill patients
Experimental: Seven critically ill adult patients (four males, three females, age range 28 to 76 years), predicted to remain mechanically ventilated for more than 48 hours, were studied. Exclusion criteria included pregnancy, pre-existing diabetes, contraindication to enteral feeding or post-pyloric catheter insertion, and previous surgery on the oesophagus, stomach or duodenum.
(§1) Patients were studied on two consecutive days, in which they received intravenous GLP-1 or placebo in a randomised, double-blind fashion. Twelve hours prior to the study, a naso-duodenal feeding catheter was inserted and confirmed via abdominal x-ray. On each study day enteral feeding was ceased at least four hours prior to the commencement of the study. Exogenous insulin (Actrapid, Novo-Nordisk, Copenhagen, Denmark) infusion was ceased at least two hours before the commencement of the study drug. Patient weight was provided by a relative and/or estimated by a dietician. […] The study investigators were blinded to each infusion, which were concealed in a glass bottle covered by black plastic. […] At t = 30 minute Ensure® (Abbott, Melbourne, Australia), a mixed nutrient liquid (64% carbohydrate, 1 kcal/ml), was delivered continuously into the small intestine at a rate of 1.5 ml/min for four hours (i.e. t = 30 to 270 min).
(§2) Blood glucose was measured at the bedside using a portable glucometer (Medisense Optimum, Abbott, Melbourne, Australia). Blood was collected, separated by centrifugation and the resulting plasma was stored at -70° until assayed for hormone concentrations. Plasma insulin was measured by ELISA (Diagnostics Systems Laboratories, Webster, Texas, USA) with an inter-assay coefficient of variation (CV) of 6.2%.
(§3) Data are presented as mean ± standard error of the mean. Area under the curve (AUC) was calculated using the trapezoidal rule. […] The ratios of insulin/glucose were calculated, as described previously. Statistical analyses were performed using SPSS (Version 15.0, Chicago, Illinois, USA). Distribution and sensitivity analysis, using nonparametric analyses, allowed parametric testing of data. The difference between intervention and placebo was assessed using paired samples; Student's paired t-test and repeated measures analysis of variance. Data were evaluated for potential carry over effect. The null hypothesis was rejected at the 0.05 significance.

[5] = Tolerability of the study infusion; format: in vivo, critically ill patients; conditions: GLP-1 1.2 pmol/kg/min i.v. over 270 minutes; all 7 patients
Excerpt: as §1

[6] = Total plasma GLP-1 concentration (radioimmunoassay) during GLP-1 infusion; format: in vivo, critically ill patients
Excerpt: as §1, §2, §3

[7] = GLP-1 1.2 pmol/kg/min i.v. t = 0-270 min, intra-duodenal Ensure 1.5 kcal/min t = 30-270 min, mean ± SEM, n = 7
[8] = GLP-1 1.2 pmol/kg/min i.v., total GLP-1, radioimmunoassay, mean ± SEM, n = 7

GLP-1-(7–36) amide
Plasma insulin AUC0–270 min ([1]; entire study period, trapezoidal rule): 16,203 ± 5193 mU/l min
Plasma insulin, t = 270 min ([1]; intra-duodenal nutrient, ELISA): 79 ± 21 mU/l
Plasma glucagon AUC0–270 minutes [2]: 22,786 ± 6040 pmol/l min
Effect on fasting glycaemia [3]: achieved fasting normoglycaemia
Tolerability [3]: well tolerated
Effect on blood glucose prior to nutrient infusion, t = 30 min ([4]; GLP-1 1.2 pmol/kg/min i.v. from t = 0, before start of small intestinal nutrient, vs placebo): no effect
Blood glucose concentration, t = 180 min [4, 7]: 9.3 ± 0.6 mmol/L
Peak blood glucose [4, 7]: 10.1 ± 0.7 mmol/L
Overall glycaemic response, blood glucose AUC30–270 min ([4]; GLP-1 1.2 pmol/kg/min i.v., intra-duodenal Ensure 1.5 kcal/min t = 30-270 min, trapezoidal rule, mean ± SEM, n = 7): 2077 ± 144 mmol·min/L
Baseline blood glucose concentration, t = 0 min ([4]; GLP-1 study day, prior to infusion, arterial blood, glucometer, mean ± SEM, n = 7): 7.5 ± 0.4 mmol/L
Tolerability of the study [5]: well tolerated
Plasma GLP-1 AUC0–270 min ([6]; GLP-1 1.2 pmol/kg/min i.v. for 270 min, trapezoidal rule, mean ± SEM, n = 7): 31,659 ± 4203 pmol/l min
Time after which steady state plasma GLP-1 concentrations were achieved ([6]; GLP-1 1.2 pmol/kg/min i.v. infusion): 30 min
Plasma GLP-1 concentration, t = 30 min [6, 8]: 124 ± 15 pmol/L
Plasma GLP-1 concentration, t = 90 min [6, 8]: 131 ± 13 pmol/L
